We go through one compound from patent US20250041216A1, “Methotrexate Composition” (Rosemont Pharmaceuticals Ltd., priority 2012, published 2025).

The nature of this series: Stability studies of example 1 formulation at different pH and buffer strength, visual precipitate (Table 3). It counts as physicochemical. Conditions: pH values below 6.0, over time. On the procedure: Batches were prepared at various pHs in the range 5.6-6.0 and were prepared at ½, 1/10th and 1/20th the original buffer strength of example 1 (i.e. the citric acid monohydrate and disodium hydrogen phosphate dihydrate buffer system). The original buffer strength was taken from a citrate-phosphate buffer table (http://microscopy.berkeley.edu/Resources/instruction/buffers.html).
The stability studies were undertaken using the example 1 formulation but using either a citrate-phosphate buffer system at half the strength (i.e. 43 mmol) or 1/10th of the strength (i.e. 8.7 mmol) compared to that of example 1. The formulations were adjusted to 5 different pH values; 5.6, 5.7, 5.8, 5.9 and 6.0. One set of formulations were stored at 5° C. and one set of formulations were stored at 25° C. for each buffer strength and each pH value for the duration of the study. The study took place over a 6-month time period.

Take `CN(Cc1cnc2nc(N)nc(N)c2n1)c1ccc(C(=O)N[C@@H](CCC(=O)O)C(=O)O)cc1` [Methotrexate]: the “Precipitation out of solution” value is “precipitate out of solution over time”.
